Results as given in US9399045B2, “Inhibition of choroidal neovascularization” (Washington University, priority 2011, dated 2016).

Legend:
ABCA1 gene expression = ABCA1 gene expression in peritoneal macrophages treated with LXR agonist (real time qPCR); format: cell-based, mouse; conditions: peritoneal young or old macrophages, 24 hours, 0 to 10 μM, FIG. 4a-b
Description: (§1) Peritoneal macrophages recruitment was elicited by intraperitoneal injection of 4% thioglycollate. Five days after injection, macrophages were harvested and cultured in RPMI-1640 overnight (Gibco, Grand Island, N.Y.). Macrophages were then washed with RPMI-1640 and non-adherent cells removed. Total RNA was prepared from splenic macrophage, peritoneal macrophages, retina, choroid or PBMCs using the RNeasy mini kit (Qiagen inc., Valencia, Calif.). cDNA was prepared using the High Capacity cDNA Archive Kit (Applied Biosystems) and PCR amplifications of cDNA were performed using Taqman probe-based gene expression assay (Applied Biosystems) as previously described (Kelly, J., et al., Senescence regulates macrophage activation and angiogenic fate at sites of tissue injury in mice. J Clin Invest 117, 3421-3426, 2007). Primer and probe sets were as follows: ActB. Mm00607939_s1; ABCA1, Mm00442649_ml; ABCG1, Mm01348250_ml; IL-6, Mm00446190_ml; FasL, Mm00438864_ml; IL-10, Mm99999062_ml; 18s rRNA. Hs99999901_s1; ABCA1, Hs00442663_ml; ABCG1: Hs 01555199_gl; IL10, Hs00961622_ml. Young and old peritoneal macrophages were treated with Liver X Receptor (LXR) agonist, TO-901317 (Sigma-Aldrich, St. Louis, Mo.) for 24 hours. […] Treated macrophages were analyzed for ABCA1 and ABCG1 gene expression and their ability to inhibit HMVECs proliferation was tested.

ABCG1 gene expression = ABCG1 gene expression in peritoneal macrophages treated with LXR agonist (real time qPCR); format: cell-based, mouse; conditions: peritoneal young or old macrophages, 24 hours, 0 to 10 μM, FIG. 4a-b
Description: as §1

HMVECs = test: Vascular endothelial cell proliferation assay: HMVECs co-cultured with treated peritoneal macrophages, [3H] thymidine; format: cell-based, human
Description: Cell proliferation was measured with an adaptation of a previously described method (Khan, A. A. & Apte, R. S. An assay for macrophage-mediated regulation of endothelial cell proliferation. Immunobiology 213, 695-699, 2008). HMVECs (1×10^4 cells) in log phase were cultured in 96-well round-bottomed plates for adherence. HMVECS cells were then co-cultured with peritoneal macrophages (1:25 ratio) and incubated with 5 μCi/ml [^3H] thymidine (PerkinElmer) for 24 hours. Cells were harvested onto glass fiber filters (Packard) and incorporated [3H] thymidine was read using TopCount NXT (PerkinElmer).
Young and old peritoneal macrophages were treated with Liver X Receptor (LXR) agonist, TO-901317 (Sigma-Aldrich, St. Louis, Mo.) for 24 hours. LXR agonist was dissolved in DMSO (vehicle) and treatment dosage ranged from 0 to 10 μM. Treated macrophages were analyzed for ABCA1 and ABCG1 gene expression and their ability to inhibit HMVECs proliferation was tested.
Peritoneal macrophages were transfected with 50 nM miScript miR33 inhibitor (anti-miR33) or negative control inhibitor (con anti-miR) using HiPerFect Transfection reagent (Qiagen). The transfection efficiency of macrophages was assessed using BLOCK-iT Fluorescent Oligo (Invitrogen). After miR33 inhibition, target genes and proteins were analyzed by qPCR and Western blot.

ABCA1 expression = ABCA1 expression in tissues of old mice after 5 days of intraperitoneal TO-901317; format: in vivo, mouse; conditions: 25 or 50 mg/kg/day for 5 days, FIG. 4e-g and FIG. 10
Description: (§2) Total RNA was prepared from splenic macrophage, peritoneal macrophages, retina, choroid or PBMCs using the RNeasy mini kit (Qiagen inc., Valencia, Calif.). cDNA was prepared using the High Capacity cDNA Archive Kit (Applied Biosystems) and PCR amplifications of cDNA were performed using Taqman probe-based gene expression assay (Applied Biosystems) as previously described (Kelly, J., et al., Senescence regulates macrophage activation and angiogenic fate at sites of tissue injury in mice. J Clin Invest 117, 3421-3426, 2007). Primer and probe sets were as follows: ActB. Mm00607939_s1; ABCA1, Mm00442649_ml; ABCG1, Mm01348250_ml; IL-6, Mm00446190_ml; FasL, Mm00438864_ml; IL-10, Mm99999062_ml; 18s rRNA. […]
(§3) Whole cell lysate was extracted from mouse peritoneal macrophages or human PBMCs using lysis buffer (50 mM Tris (pH=7.4), 150 mM NaCl, 1% EDTA, 10% TritonX, and 1% SDS) with proteinase inhibitor (Complete, Roche). […] Proteins were detected and analyzed using the Odyssey Infrared Imaging System (LI-COR Biosciences, Lincoln, Nebr.). Band densities of ABCA1 and ABCG1 were quantified and normalized to β-actin.
(§4) Old mice (>18 months) were given a daily intraperitoneal injection of vehicle, 25 mg/kg or 50 mg/kg TO-901317. After five consecutive days treatment, CNV was induced in one set of mice (5 of each group) and analyzed as described above. […]

ABCG1 expression = ABCG1 expression in tissues of old mice after 5 days of intraperitoneal TO-901317; format: in vivo, mouse; conditions: 25 or 50 mg/kg/day for 5 days, FIG. 4e-g and FIG. 10
Description: as §2, §3, §4

[1] = tested on: choroidal neovascularization (CNV); test: Laser-induced CNV in old mice; format: in vivo, mouse; conditions: intraperitoneal, 25 or 50 mg/kg/day for 5 days prior to laser, FIG. 4h-i
Description: Rupture of Bruchs membrane with laser was used to initiate CNV in mice as described previously (Apte R S, Niederkorn J Y. Isolation and characterization of a unique natural killer cell inhibitory factor present in the anterior chamber of the eye. J. Immunol. 156:2667-2673, 1996). Briefly, mice were anesthetized by injecting ketamine hydrochloride (100 mg/kg) and xylazine (13.4 mg/kg) intraperitoneally, and their pupils were dilated with 1% tropicamide. Using argon green laser, four laser burns were placed around the optic nerve (0.1 second, 50 μm, and 110 mW). Seven days after laser, mice were anesthetized as described above and perfused intraventricularly with FITC-dextran (Sigma-Aldrich). Mice were euthanized in a CO2 chamber, and their eyes were harvested for tissue processing. […]
Micro scissors were used to make four radial incisions in the sclerochoroidal “eyecup” to prepare choroidal flat mounts on glass slides. […] The choroidal flat mounts were analyzed for the presence of CNV by confocal microscopy. The extent of choroidal neovascularization was quantified by Metamorph Imaging software. […]
as §4

SMILES: O=S(=O)(c1ccccc1)N(CC(F)(F)F)c1ccc(C(O)(C(F)(F)F)C(F)(F)F)cc1 [TO-901317, N-(2,2,2-trifluoro-ethyl)-N-[4-(2,2,2-tri-fluoro-1-hydroxy-1-trifluoromethyl-ethyl)-phenyl]-benzenesulfonamide]
- ABCA1 gene expression (ABCA1 gene expression): dose-dependent upregulation
- ABCG1 gene expression (ABCG1 gene expression): dose-dependent upregulation
- ability of treated macrophages to inhibit HMVECs proliferation (HMVECs; Abca1−/− macrophages treated with LXR agonist): does not restore their ability to inhibit HMVECs proliferation
- ability of treated macrophages to inhibit endothelial cell proliferation (HMVECs; old macrophages treated with LXR agonist, co-cultured with HMVECs, FIG. 4d): completely restored their ability to inhibit endothelial cell proliferation
- ABCA1 expression compared to vehicle treated mice (ABCA1 expression): strong systemic upregulation
- ABCG1 expression compared to vehicle treated mice (ABCG1 expression): strong systemic upregulation
- CNV compared to vehicle treated old mice [1]: significant and dose dependent reduction in CNV
